Common to all, as to assay type: in vivo
For one series, the system named is Solanum nigrum L. Kind of series: 14C-glyphosate foliar uptake by scintillation measurement. The settings on record: 14C-glyphosate-IPA 20 mM (aq), adjuvant 0.25%. Here is the method:
Determination of the foliar uptake of glyphosate with addition of the copolymers described
^14C-Glyphosate Experiment
^14C-glyphosate-IPA at a concentration of 20 mM (aq) (corresponds to 665 g of ae/ha at a spray volume of 200 l/ha) was treated with 0.25% of the copolymers described. Using this mixture, the foliar uptake into the genus Solanum nigrum L. was determined by means of scintillation measurement. The effect of the copolymer on the uptake of the active ingredient via the leaf surface (foliar uptake) is described in the table which follows: […]

Another series deals with common chickweed (STEME). Kind of series: Nicosulforon experiment, plant fresh weight. The following applies: nicosulforon 200 g of ai/ha, adjuvant 0.25%, 14 DAT; untreated = 100. Here is the method:
(§1) Nicosulforon was applied as an aqueous solution with a concentration of 200 g of ai/ha. The adjuvants were added to the application solution at a concentration of 0.25%. The mixture was applied to plants of the genus velvetleaf (ABUTH), common lambsquarter (CHEAL) and common chickweed (STEME). The efficacy was determined by weighing the plant weight (fresh weight in g) 14 days post-application (14 DAT).

For series [1], the system named is common lambsquarter (CHEAL). Kind of series: Nicosulforon experiment, plant fresh weight. The following applies: nicosulforon 200 g of ai/ha, adjuvant 0.25%, 14 DAT; untreated = 100. On the procedure:
as §1

A further series concerns velvetleaf (ABUTH). Kind of series: Nicosulforon experiment, plant fresh weight. The settings on record: nicosulforon 200 g of ai/ha, adjuvant 0.25%, 14 DAT; untreated = 100. On the procedure: as §1
Series [2] concerns common lambsquarters (CHEAL). Kind of series: Bentazone experiment, photosynthetic activity by fluorescence measurement (Fpc). The settings on record: sodium salt of bentazone 60 g ai/ha, adjuvant 0.25%, 1 DAT; Fpc drops from 100 to 0 with destruction of the plant. On the procedure: (§2) The sodium salt of bentazone was applied as an aqueous solution with a concentration of 480 g/l. The application rate was 60 g of ai/ha. The mixture was applied to plants of the genus common lambsquarters (CHEAL) and wild buckwheat (POLCO). The adjuvants were added to the application solution at a concentration of 0.25%. The activity was determined by means of fluorescence measurement, where the factor Fpc is a measure of the photosynthetic activity. The destruction of the plant is associated with a drop in the Fpc value, starting from 100, down to 0.

Another series has as its system wild buckwheat (POLCO). The description is as above. The following applies: sodium salt of bentazone 60 g ai/ha, adjuvant 0.25%, 1 DAT; Fpc drops from 100 to 0 with destruction of the plant. Here is the method:
as §2

Each structure is given as a SMILES string. Structures can show the parent of a compound that is named as a salt.

On to `O=C(O)CNCP(=O)(O)O` [glyphosate, N-phosphonomethylglycine], for which the “Uptake (% of the amount of glyphosate applied)” value in the series with Solanum nigrum L. was 48 % of the amount of glyphosate applied.
As for `COc1cc(OC)nc(NC(=O)NS(=O)(=O)c2ncccc2C(=O)N(C)C)n1` [nicosulforon], the “FW (fresh weight) STEME” value in the series on common chickweed (STEME) is on record as 63 g. Also, the “FW (fresh weight) CHEAL” value in series [1] was 88 g. The “FW (fresh weight) ABUTH” value with velvetleaf (ABUTH) is listed as 90 g.
As for `CC(C)N1C(=O)c2ccccc2NS1(=O)=O` [sodium salt of bentazone], in series [2], the “Fluorescence Fpc CHEAL” value is reported as 56. The “Florescence Fpc POLCO” value in the series on wild buckwheat (POLCO) is listed as 46.

Source of the values: US20060264330A1, “Agricultural agents containing copolymers” (priority 2003, published 2006).
